These results are taken from PubChem BioAssay AID306 (DTP/NCI, 2004).

Where “and” joins values, the source holds several entries; their conditions need not be identical. Equal values may be shown once. Inconclusive results and toxic doses are left out.

The subject of this experiment is BDF1 mice, L1210 Methyl-GAG-resistant leukemia, survival T/C. Nature of the experiment: NCI In Vivo Anticancer Drug Screen. Data for tumor model L1210 Leukemia resistant to Methyl-GAG; NSC 32946 (subcutaneous) in B6D2F1 (BDF1) mice. The following applies: endpoint: mean survival time, higher = longer survival. The protocol:
The antitumor activity of compounds was measured in mice bearing transplantable tumors. Survival or tumor size were measured and the results are expressed as the measurement made in the treated group (T) divided by the measurement made in the vehicle treated control group (C). The tumor model used in this assay is L1210 Leukemia resistant to Methyl-GAG; NSC 32946 (subcutaneous) in B6D2F1 (BDF1) mice

[1] abbreviates: dose: 12.5 mg/kg/injection, schedule: Q01DX Z (ip), vehicle: carboxymethylcellulose (CMC).
[2] abbreviates: dose: 25.0 mg/kg/injection, schedule: Q01DX Z (ip), vehicle: carboxymethylcellulose (CMC).
Setting [3] is: dose: 50.0 mg/kg/injection, schedule: Q01DX Z (ip), vehicle: carboxymethylcellulose (CMC).
The mark [4] stands for this setting: dose: 100.0 mg/kg/injection, schedule: Q01DX Z (ip), vehicle: carboxymethylcellulose (CMC).
The mark [5] stands for this setting: dose: 200.0 mg/kg/injection, schedule: Q01DX Z (ip), vehicle: carboxymethylcellulose (CMC).
[6] abbreviates: dose: 400.0 mg/kg/injection, schedule: Q01DX Z (ip), vehicle: carboxymethylcellulose (CMC).
The mark [7] stands for this setting: dose: 0.4 mg/kg/injection, schedule: Q01DX Z (ip), vehicle: water.
Where [8] appears, read: dose: 0.8 mg/kg/injection, schedule: Q01DX Z (ip), vehicle: water.
Setting [9] is: dose: 1.6 mg/kg/injection, schedule: Q01DX Z (ip), vehicle: water.
The mark [10] stands for this setting: dose: 3.1 mg/kg/injection, schedule: Q01DX Z (ip), vehicle: water.
The mark [11] stands for this setting: dose: 2.5 mg/kg/injection, schedule: Q01DX Z (ip), vehicle: carboxymethylcellulose (CMC).
Where [12] appears, read: dose: 5.0 mg/kg/injection, schedule: Q01DX Z (ip), vehicle: carboxymethylcellulose (CMC).
[13] abbreviates: dose: 10.0 mg/kg/injection, schedule: Q01DX Z (ip), vehicle: carboxymethylcellulose (CMC).
Where [14] appears, read: dose: 20.0 mg/kg/injection, schedule: Q01DX Z (ip), vehicle: carboxymethylcellulose (CMC).
[15] abbreviates: dose: 0.5 mg/kg/injection, schedule: Q01DX Z (ip), vehicle: carboxymethylcellulose (CMC).
Setting [16] is: dose: 2.0 mg/kg/injection, schedule: Q01DX Z (ip), vehicle: carboxymethylcellulose (CMC).

For `CC(=O)Nc1ccc2nc3ccc(NC(C)=O)cc3[n+](-c3ccccc3)c2c1`, the T/C by setting is: under setting [1], 97 % of control; under setting [2], 97 % of control; under setting [3], 113 % of control; under setting [4], 98 % of control; under setting [5], 88 % of control; under setting [6], 93 % of control.

As for `C[C@@H]1C[C@H]2CC[C@H](O2)[C@H](C)C(=O)O[C@@H](C)C[C@@H]2CC[C@@H](O2)[C@@H](C)C(=O)O[C@H](C)C[C@H]2CC[C@H](O2)[C@H](C)C(=O)O[C@@H](C)C[C@@H]2CC[C@@H](O2)[C@@H](C)C(=O)O1`, the T/C by setting is: under setting [2], 97 % of control; under setting [3], 91 % of control; under setting [4], 91 % of control; under setting [5], 97 % of control.

With `S=P(N1CCOCC1)(N1CC1)N1CC1`, the T/C by setting is: under setting [1], 104 % of control; under setting [2], 102 % of control.

On to `O=C(Nc1ccc(C2=NCCN2)cc1)c1ccc(C(=O)Nc2ccc(C3=NCCN3)cc2)cc1`, for which the T/C was 98 % of control under setting [2]; 98 % of control under setting [3]; 124 % of control under setting [4]; 236 % of control under setting [5]; 104 % of control under setting [6].

Regarding `O=C(Nc1ccc(C2=NCCCN2)cc1)c1ccc(C(=O)Nc2ccc(C3=NCCCN3)cc2)cc1`, the T/C reads like this: (dose: 0.2 mg/kg/injection, schedule: Q01DX Z (ip), vehicle: water) 100 % of control; under setting [7], 108 % of control; under setting [8], 121 % of control; under setting [9], 158 % of control and 211 % of control; under setting [10], 212 % of control.

On to `CC1CCOS(=O)O1` (stereo not drawn), for which the T/C was 95 % of control under setting [11]; 101 % of control under setting [12]; 97 % of control under setting [13]; 97 % of control under setting [14]; 95 % of control (dose: 40.0 mg/kg/injection, schedule: Q01DX Z (ip), vehicle: carboxymethylcellulose (CMC)); 92 % of control (dose: 80.0 mg/kg/injection, schedule: Q01DX Z (ip), vehicle: carboxymethylcellulose (CMC)).

As to `NC(=O)N(CCCl)N=O`, the T/C under setting [15] was 95 % of control; the T/C (dose: 1.0 mg/kg/injection, schedule: Q01DX Z (ip), vehicle: carboxymethylcellulose (CMC)) was 96 % of control and 101 % of control; the T/C under setting [16] is 100 % of control and 101 % of control.

On to `CC/C(=C(/CC)c1ccc(O)cc1)c1ccc(O)cc1`, for which the T/C reads like this: (dose: 31.25 mg/kg/injection, schedule: Q01DX Z (sc), vehicle: steriod suspending solution) 97 % of control; (dose: 62.5 mg/kg/injection, schedule: Q01DX Z (sc), vehicle: steriod suspending solution) 110 % of control; (dose: 125.0 mg/kg/injection, schedule: Q01DX Z (sc), vehicle: steriod suspending solution) 100 % of control; (dose: 250.0 mg/kg/injection, schedule: Q01DX Z (sc), vehicle: steriod suspending solution) 87 % of control.

For the molecule `CS(=O)(=O)OCCCl`, the T/C by setting is: under setting [1], 89 % of control; under setting [2], 96 % of control; under setting [3], 92 % of control; under setting [4], 113 % of control.

Take `CC(CCC(C)OS(C)(=O)=O)OS(C)(=O)=O` (stereo not drawn): the T/C under setting [12] is 90 % of control, the T/C under setting [13] is 87 % of control and the T/C under setting [14] is 95 % of control.

Take `CCN(CC)C(=S)S`: the T/C runs as follows: (dose: 125.0 mg/kg/injection, schedule: Q01DX Z (ip), vehicle: other) 96 % of control; (dose: 250.0 mg/kg/injection, schedule: Q01DX Z (ip), vehicle: other) 92 % of control; (dose: 500.0 mg/kg/injection, schedule: Q01DX Z (ip), vehicle: other) 96 % of control; (dose: 1000.0 mg/kg/injection, schedule: Q01DX Z (ip), vehicle: other) 104 % of control and 114 % of control.

On to `CCN(CC)c1ccc2cc3ccc(=[N+](CC)CC)cc-3oc2c1`, for which the T/C is, setting by setting: (dose: 0.08 mg/kg/injection, schedule: Q01DX Z (ip), vehicle: carboxymethylcellulose (CMC)) 117 % of control; (dose: 0.16 mg/kg/injection, schedule: Q01DX Z (ip), vehicle: carboxymethylcellulose (CMC)) 95 % of control; (dose: 0.31 mg/kg/injection, schedule: Q01DX Z (ip), vehicle: carboxymethylcellulose (CMC)) 91 % of control; (dose: 0.32 mg/kg/injection, schedule: Q01DX Z (ip), vehicle: carboxymethylcellulose (CMC)) 103 % of control; (dose: 0.63 mg/kg/injection, schedule: Q01DX Z (ip), vehicle: carboxymethylcellulose (CMC)) 91 % of control; (dose: 1.25 mg/kg/injection, schedule: Q01DX Z (ip), vehicle: carboxymethylcellulose (CMC)) 87 % of control. Further, the T/C runs as follows: under setting [11], 91 % of control; under setting [12], 95 % of control.

`O=C(Nc1ccc(C2=NCCCN2)cc1)c1ccc(NC(=O)c2ccc(C3=NCCCN3)cc2)cc1`: the T/C by setting is: (dose: 0.24 mg/kg/injection, schedule: Q01DX Z (ip), vehicle: carboxymethylcellulose (CMC)) 97 % of control; (dose: 0.47 mg/kg/injection, schedule: Q01DX Z (ip), vehicle: carboxymethylcellulose (CMC)) 101 % of control; (dose: 0.95 mg/kg/injection, schedule: Q01DX Z (ip), vehicle: carboxymethylcellulose (CMC)) 104 % of control; (dose: 1.9 mg/kg/injection, schedule: Q01DX Z (ip), vehicle: carboxymethylcellulose (CMC)) 98 % of control; (dose: 1.95 mg/kg/injection, schedule: Q01DX Z (ip), vehicle: carboxymethylcellulose (CMC)) 175 % of control and 192 % of control; (dose: 3.9 mg/kg/injection, schedule: Q01DX Z (ip), vehicle: carboxymethylcellulose (CMC)) 169 % of control and 232 % of control. Also, the T/C is 216 % of control (dose: 7.8 mg/kg/injection, schedule: Q01DX Z (ip), vehicle: carboxymethylcellulose (CMC)); 112 % of control and 122 % of control (dose: 15.6 mg/kg/injection, schedule: Q01DX Z (ip), vehicle: carboxymethylcellulose (CMC)).

`CN(C)c1ccc(Nc2c3ccccc3nc3ccccc23)cc1`: the T/C (dose: 1.6 mg/kg/injection, schedule: Q01DX Z (ip), vehicle: carboxymethylcellulose (CMC)) was 105 % of control; the T/C (dose: 3.1 mg/kg/injection, schedule: Q01DX Z (ip), vehicle: carboxymethylcellulose (CMC)) is 99 % of control; the T/C (dose: 6.25 mg/kg/injection, schedule: Q01DX Z (ip), vehicle: carboxymethylcellulose (CMC)) is 100 % of control; the T/C under setting [1] is 103 % of control; the T/C under setting [2] is 115 % of control; the T/C under setting [5] was 91 % of control.

As to `CCOC(=O)NP(=O)(N1CC1(C)C)N1CC1(C)C` (stereo not drawn), the T/C runs as follows: (dose: 62.5 mg/kg/injection, schedule: Q01DX Z (ip), vehicle: carboxymethylcellulose (CMC)) 95 % of control; (dose: 125.0 mg/kg/injection, schedule: Q01DX Z (ip), vehicle: carboxymethylcellulose (CMC)) 95 % of control; (dose: 250.0 mg/kg/injection, schedule: Q01DX Z (ip), vehicle: carboxymethylcellulose (CMC)) 97 % of control; (dose: 500.0 mg/kg/injection, schedule: Q01DX Z (ip), vehicle: carboxymethylcellulose (CMC)) 93 % of control.

For the molecule `Nc1nc(=S)c2[nH]cnc2[nH]1`, the T/C runs as follows: (dose: 0.12 mg/kg/injection, schedule: Q01DX Z (ip), vehicle: carboxymethylcellulose (CMC)) 98 % of control; (dose: 0.25 mg/kg/injection, schedule: Q01DX Z (ip), vehicle: carboxymethylcellulose (CMC)) 93 % of control; under setting [15], 96 % of control; under setting [16], 164 % of control and 168 % of control; (dose: 4.0 mg/kg/injection, schedule: Q01DX Z (ip), vehicle: carboxymethylcellulose (CMC)) 118 % of control.

For `O=c1[nH]c(=O)n(C2CC(O)C(CO)O2)cc1F` (stereo not drawn), the T/C under setting [2] was 112 % of control; the T/C under setting [4] was 121 % of control; the T/C under setting [5] is 87 % of control and 103 % of control.

Regarding `CN(C)c1ccc(/C=C\c2ccnc3ccccc23)cc1`, the T/C was 97 % of control and 107 % of control under setting [7]; 89 % of control and 105 % of control under setting [8]; 104 % of control under setting [9]; 101 % of control under setting [10]; 90 % of control (dose: 6.25 mg/kg/injection, schedule: Q01DX Z (ip), vehicle: water); 95 % of control (dose: 12.5 mg/kg/injection, schedule: Q01DX Z (ip), vehicle: water). In addition, the T/C (dose: 25.0 mg/kg/injection, schedule: Q01DX Z (ip), vehicle: water) is 104 % of control; the T/C (dose: 50.0 mg/kg/injection, schedule: Q01DX Z (ip), vehicle: water) is 97 % of control and 107 % of control.
